The values that follow come from PMC4410398, “Influence of Drug Resistance Mutations on the Activity of HIV-1 Subtypes A and B Integrases: a Comparative Study” (Acta Naturae, 2015).

The structures appear in SMILES notation.

The target in one experiment is T1, INB E138K/Q148K (Human immunodeficiency virus type 1 group M subtype B, UniProt P04585, E1285K/Q1295K).
T1 construct: The viral enzyme integrase (IN), which catalyzes the integration; His6 (N); made in house; host or cells: Escherichia coli Rosetta (DE3), pET-15b
Description: Inhibition of homologous strand transfer reaction, INB E138K/Q148K. Type of experiment: biochemical, HIV-1 subtype B strain HXB-2.

A further experiment concerns the target T2, INB G140S (Human immunodeficiency virus type 1 group M subtype B, UniProt P04585, G1287S).
T2 construct: The viral enzyme integrase (IN), which catalyzes the integration; His6 (N); made in house; host or cells: Escherichia coli Rosetta (DE3), pET-15b
Description: Inhibition of homologous strand transfer reaction, INB G140S. In kind it is biochemical, HIV-1 subtype B strain HXB-2.

Another experiment addresses INA E138K/Q148K (Human immunodeficiency virus type 1 group M subtype A, UniProt P24740, E1278K/Q1288K/S1259P). Type of experiment: biochemical, HIV-1 subtype A strain FSU-A.
Another experiment has as its target INA G140S/Q148K (Human immunodeficiency virus type 1 group M subtype A, UniProt P24740, G1280S/Q1288K/S1259P). Type of experiment: biochemical, HIV-1 subtype A strain FSU-A.
The target of a further experiment is T3, INB G118R (Human immunodeficiency virus type 1 group M subtype B, UniProt P04585, G1265R).
T3 construct: The viral enzyme integrase (IN), which catalyzes the integration; His6 (N); made in house; host or cells: Escherichia coli Rosetta (DE3), pET-15b
The experiment in a line: Inhibition of homologous strand transfer reaction, INB G118R. In kind it is biochemical, HIV-1 subtype B strain HXB-2.

Experiment [1] addresses T4, INB (integrase of HIV-1 subtype B strain HXB-2), wild type (Human immunodeficiency virus type 1 group M subtype B, UniProt P04585).
T4 construct: The viral enzyme integrase (IN), which catalyzes the integration; His6 (N); made in house; host or cells: Escherichia coli Rosetta (DE3), pET-15b
In kind it is biochemical.

In another experiment the target is INA E138K (Human immunodeficiency virus type 1 group M subtype A, UniProt P24740, E1278K/S1259P). Type of experiment: biochemical, HIV-1 subtype A strain FSU-A.
The target of the next experiment is INA G118R (Human immunodeficiency virus type 1 group M subtype A, UniProt P24740, G1258R/S1259P). Type of experiment: biochemical, HIV-1 subtype A strain FSU-A.
Another experiment deals with INB. Also noted: method as in PMID 23075516. The settings on record: literature value for INB; cited from earlier work.
The target in a further experiment is T5, INB E138K (Human immunodeficiency virus type 1 group M subtype B, UniProt P04585, E1285K).
T5 construct: The viral enzyme integrase (IN), which catalyzes the integration; His6 (N); made in house; host or cells: Escherichia coli Rosetta (DE3), pET-15b
Description: Inhibition of homologous strand transfer reaction, INB E138K. Type of experiment: biochemical, HIV-1 subtype B strain HXB-2.

The target of another experiment is INA Q148K (Human immunodeficiency virus type 1 group M subtype A, UniProt P24740, Q1288K/S1259P). In kind it is biochemical, HIV-1 subtype A strain FSU-A.
Another experiment has as its target T6, INB Q148K (Human immunodeficiency virus type 1 group M subtype B, UniProt P04585, Q1295K).
T6 construct: The viral enzyme integrase (IN), which catalyzes the integration; His6 (N); made in house; host or cells: Escherichia coli Rosetta (DE3), pET-15b
The experiment in a line: Inhibition of homologous strand transfer reaction, INB Q148K. Type of experiment: biochemical, HIV-1 subtype B strain HXB-2.

The target of experiment [2] is INA (consensus integrase of HIV-1 subtype A strain FSU-A), wild type (Human immunodeficiency virus type 1 group M subtype A, UniProt P24740, S1259P). Type of experiment: biochemical.
The target of a further experiment is T7, INB G118R/E138K (Human immunodeficiency virus type 1 group M subtype B, UniProt P04585, E1285K/G1265R).
T7 construct: The viral enzyme integrase (IN), which catalyzes the integration; His6 (N); made in house; host or cells: Escherichia coli Rosetta (DE3), pET-15b
The experiment in a line: Inhibition of homologous strand transfer reaction, INB G118R/E138K. In kind it is biochemical, HIV-1 subtype B strain HXB-2.

The target of a further experiment is INA G118R/E138K (Human immunodeficiency virus type 1 group M subtype A, UniProt P24740, E1278K/G1258R/S1259P). In kind it is biochemical, HIV-1 subtype A strain FSU-A.
The target of a further experiment is INA G140S (Human immunodeficiency virus type 1 group M subtype A, UniProt P24740, G1280S/S1259P). In kind it is biochemical, HIV-1 subtype A strain FSU-A.
The next experiment addresses T8, INB G140S/Q148K (Human immunodeficiency virus type 1 group M subtype B, UniProt P04585, G1287S/Q1295K).
T8 construct: The viral enzyme integrase (IN), which catalyzes the integration; His6 (N); made in house; host or cells: Escherichia coli Rosetta (DE3), pET-15b
Description: Inhibition of homologous strand transfer reaction, INB G140S/Q148K. Type of experiment: biochemical, HIV-1 subtype B strain HXB-2.

The subject of experiment [3] is HIV-1 subtype B (clone pNL4-3) carrying G118R. More on the design: method as in PMID 24710029. The settings on record: cited from earlier work.
Experiment [4] concerns HIV-1 subtype CRF02_A/G isolate carrying a G118R substitution in the IN gene. More on the design: method as in PMID 24710029. The settings on record: HIV-1 subtype CRF02_A/G isolate carrying G118R in the IN gene; cited from earlier work.
Setting [5] is: homologous strand transfer, 2 h, 100 nM IN, read-out: Inhibitory activity, IC50.

In general, IC50 refers to the concentration that inhibits the measured activity by half. For the molecule `CN(C)S(=O)(=O)c1cc(O)c(O)c2c1CN(Cc1ccc(F)c(Cl)c1)C2=O` [XZ-259], the “ratio of IC50 for mutants over wt (FC)” value at INB E138K/Q148K turned out to be 7.7; on INB G140S, 2.3; at INA E138K/Q148K, 5; at INA G140S/Q148K, 15; on INB G118R, 1.2; in [1] it was 1. Besides, the “ratio of IC50 for mutants over wt (FC)” value at INA E138K worked out at 1.25; at INA G118R, 1; at INB E138K, 1; on INA Q148K, 8.8; on INB Q148K, 9.2; in experiment [2], 1. Besides, the “ratio of IC50 for mutants over wt (FC)” value was determined as 1.2 at INB G118R/E138K, 0.75 at INA G118R/E138K, 3.8 at INA G140S and 13 on INB G140S/Q148K. In addition, the IC50 on INB E138K/Q148K (setting [5]) is 500 ± 200 nM; on INB G140S (setting [5]), 150 ± 50 nM; at INA E138K/Q148K (setting [5]), 200 ± 50 nM; on INA G140S/Q148K (setting [5]), 600 ± 150 nM; on INB G118R (setting [5]) it was 80 ± 20 nM; in experiment [1] (setting [5]), 65 ± 10 nM. Moreover, the IC50 was 50 ± 15 nM on INA E138K (setting [5]); 40 ± 10 nM at INA G118R (setting [5]); 77 nM with INB; 70 ± 10 nM at INB E138K (setting [5]); 350 ± 100 nM on INA Q148K (setting [5]); 600 ± 100 nM at INB Q148K (setting [5]). Besides, the IC50 in experiment [2] (setting [5]) is 40 ± 15 nM; at INB G118R/E138K (setting [5]) it was 80 ± 15 nM; at INA G118R/E138K (setting [5]), 30 ± 10 nM; at INA G140S (setting [5]), 150 ± 50 nM; at INB G140S/Q148K (setting [5]), 850 ± 100 nM.
For `C[C@@H]1CCO[C@H]2Cn3cc(C(=O)NCc4ccc(F)cc4F)c(=O)c(O)c3C(=O)N12` [DTG, dolutegravir], the “FC (resistance)” value is 10 in [3] and over 100 in [4].
